Results from ChEMBL document CHEMBL5634192, “Transforming Therapeutic Approaches with PROTAC Technology: New Targets and Potentials” (ACS Med Chem Lett, 2024).

What was measured:
[1] = biological target: T1, von Hippel-Lindau disease tumor suppressor/Interleukin-1 receptor-associated kinase 4 (Homo sapiens, UniProt Q9NWZ3+P40337); assay: PROTAC activity at VHL E3 ligase/IRAK4 in human PBMC cells assessed as induction of degradation of IRAK4 incubated overnight by ELISA method; format: cell-based
[2] = biological target: T1, von Hippel-Lindau disease tumor suppressor/Interleukin-1 receptor-associated kinase 4; assay: PROTAC activity at VHL E3 ligase/IRAK4 in human PBMC cells assessed as induction of degradation of IRAK4 incubated overnight by ELISA method relative to control; format: cell-based
Target sequence in this assay (P40337 whole entry, looked up): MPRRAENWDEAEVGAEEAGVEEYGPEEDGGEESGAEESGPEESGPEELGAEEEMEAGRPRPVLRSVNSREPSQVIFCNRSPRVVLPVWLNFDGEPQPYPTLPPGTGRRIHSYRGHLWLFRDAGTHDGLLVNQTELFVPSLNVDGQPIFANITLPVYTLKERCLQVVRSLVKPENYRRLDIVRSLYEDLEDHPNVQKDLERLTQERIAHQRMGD
Target sequence in this assay (Q9NWZ3 whole entry, looked up): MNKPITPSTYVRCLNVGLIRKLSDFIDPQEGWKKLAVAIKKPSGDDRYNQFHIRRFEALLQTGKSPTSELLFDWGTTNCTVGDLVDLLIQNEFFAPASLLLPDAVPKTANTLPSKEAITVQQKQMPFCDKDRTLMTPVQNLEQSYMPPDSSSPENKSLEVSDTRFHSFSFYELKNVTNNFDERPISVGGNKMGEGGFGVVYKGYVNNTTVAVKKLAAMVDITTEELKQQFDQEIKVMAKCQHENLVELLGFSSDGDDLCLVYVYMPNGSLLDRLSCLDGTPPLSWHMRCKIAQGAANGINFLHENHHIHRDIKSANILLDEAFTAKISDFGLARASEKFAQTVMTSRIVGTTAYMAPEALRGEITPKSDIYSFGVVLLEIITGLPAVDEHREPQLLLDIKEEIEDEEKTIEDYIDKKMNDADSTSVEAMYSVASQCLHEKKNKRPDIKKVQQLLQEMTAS

Row | Compound | DC50 [1] [nM] | EC90 [1] [nM] | Emax [2] [%]
1 | CC(C)Oc1cc2c(cc1NC(=O)c1cnn3cccnc13)CN(C1CCN(CC3CCN(c4ccc(C5CCC(=O)NC5=O)c(F)c4)CC3)CC1)C2=O (centres undefined) | < 1 | < 10 | > 90
2 | O=C1CCC(c2ccc(N3CCC4(CC3)CC(CN3CCC(n5cc6cc(NC(=O)c7cnn8cccnc78)c(OCC7CC7)cc6n5)CC3)C4)cc2F)C(=O)N1 (centres undefined) | 1 | < 10 | > 90
3 | CC(C)Oc1cc2c(cc1NC(=O)c1cnn3cccnc13)CN(C1CCN(CC3CCN(c4ccc(C5CCC(=O)NC5=O)cn4)CC3)CC1)C2=O (centres undefined) | < 1 | < 10 | > 90
4 | CC(C)Oc1nc2c(cc1NC(=O)c1cnn3cccnc13)CN(C1CCN(CC3CCN(c4ccc(C5CCC(=O)NC5=O)c(F)c4)CC3)CC1)C2=O (centres undefined) | < 1 | < 10 | > 90
5 | CC(C)Oc1cc2c(cc1NC(=O)c1cnn3cccnc13)CN(C1CCN(CC3CCN(c4ccc(C5CCC(=O)NC5=O)cc4)CC3)CC1)C2=O (centres undefined) | 1 | < 10 | > 90

Results, then the compound that gave them:

Row | DC50 [1] [nM] | EC90 [1] [nM] | Emax [2] [%] | Compound
6 | < 1 | < 10 | > 90 | O=C1CCC(c2ccc(N3CC(F)(CN4CCC(n5cc6cc(NC(=O)c7cnn8cccnc78)c(N7CCC(N8CCC8)CC7)cc6n5)CC4)C3)cc2F)C(=O)N1 (centres undefined)
7 | < 1 | < 10 | > 90 | O=C1CCC(c2ccc(N3CC(F)(CN4CCC(n5cc6cc(NC(=O)c7cnn8cccnc78)c(OCC7CC7)cc6n5)CC4)C3)cc2F)C(=O)N1 (centres undefined)
8 | < 1 | < 10 | > 90 | O=C1CCC(c2ccc(N3CCC4(CCC(CN5CCC(n6cc7cc(NC(=O)c8cnn9cccnc89)c(OCC8CC8)cc7n6)CC5)CC4)CC3)cc2F)C(=O)N1 (centres undefined)
